PubChem BioAssay (NCI)
Several values for one entry are separate records, joined by “and”; a condition that tells them apart may be missing. Equal entries are not always repeated.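 Protocol summary: plate cells (96-well), add compound at 5 concentrations, incubate 48 h, interpolate endpoints linearly. Here, GI50 denotes the concentration required for 50% inhibition of growth. TGI marks complete inhibition of growth.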

Legend:
Experiment in all cases: NCI-60 cell line screen, 48 h
[1] = tested on: CCRF-CEM leukemia
[2] = tested on: DU-145 prostate
[3] = tested on: EKVX NSCLC
[4] = tested on: HCT-15 colon
[5] = tested on: MOLT-4 leukemia
[6] = tested on: RPMI-8226 leukemia
[7] = tested on: SK-MEL-2 melanoma
[8] = tested on: SNB-75 CNS
[9] = tested on: SW-620 colon
[10] = tested on: UACC-62 melanoma

`CC(C)NC[C@@H](C(=O)N1CCN(c2ncnc3c2[C@H](C)C[C@H]3O)CC1)c1ccc(Cl)cc1` was tested. Which GI50 [1] did it give?
Its GI50 is 1.57 µM and 1.24 µM.

What about the TGI [1] of the same compound?
Its TGI is over 100 µM.

And the GI50 [2]?
The GI50 was > 10 µM and 40.3 µM.

And the TGI [2]?
The TGI was over 100 µM.

What about the GI50 [3] of the same compound?
Its GI50 is over 10 µM.

What about the TGI [3] of the same compound?
The TGI was over 10 µM.

What about the GI50 [4] of the same compound?
Its GI50 is > 10 µM and 44.8 µM.

And the TGI [4]?
Its TGI is over 100 µM.

What about the GI50 [5] of the same compound?
Its GI50 is 0.676 µM and 0.747 µM.

And the TGI [5]?
The TGI was > 10 µM and 73.9 µM.

And the GI50 [6]?
Its GI50 is > 10 µM and 38.1 µM.

And the TGI [6]?
Its TGI is over 100 µM.

What about the GI50 [7] of the same compound?
The GI50 was > 10 µM and 33 µM.

And the TGI [7]?
Its TGI is over 80.2 µM.

What about the GI50 [8] of the same compound?
The GI50 was 0.285 µM and 0.213 µM.

What about the TGI [8] of the same compound?
The TGI was > 10 µM and 5.44 µM.

And the GI50 [9]?
Its GI50 is > 10 µM and 35.9 µM.

And the TGI [9]?
Its TGI is over 100 µM.

What about the GI50 [10] of the same compound?
The GI50 was 1.9 µM and 6 µM.

What about the TGI [10] of the same compound?
The TGI was over 100 µM.

What does the source list for `CC(C)(C)C[C@H]1NC(C(=O)NCC[C@H](O)CO)[C@H](c2cccc(Cl)c2)[C@@]12C(=O)Nc1cc(Cl)c(F)cc12` (stereo not given in full)?
GI50 [1]: 17.7 µM; TGI [1]: 45.9 µM; GI50 [2]: 16.1 µM; TGI [2]: 30.6 µM; GI50 [3]: 13.3 µM; TGI [3]: 29.1 µM; GI50 [4]: 17.8 µM; TGI [4]: 37.5 µM; GI50 [5]: 2.19 µM; TGI [5]: 8.22 µM; GI50 [6]: 12.8 µM; TGI [6]: 38.4 µM; GI50 [7]: 14.4 µM; TGI [7]: 28.6 µM; GI50 [8]: 14.1 µM; TGI [8]: 29.9 µM; GI50 [9]: 16.6 µM; TGI [9]: 34.1 µM; GI50 [10]: 1.6 µM; TGI [10]: 15.8 µM

With `CCN1C(=O)N(CC)C2C1NN=c1s/c(=C\c3cccnc3)c(=O)n12` (stereo not given) as the compound, how does the GI50 [1] read?
The GI50 was 0.41 µM.

And the TGI [1]?
Its TGI is over 100 µM.

What about the GI50 [2] of the same compound?
The GI50 was 0.412 µM.

What about the TGI [2] of the same compound?
The TGI was over 48.7 µM.

And the GI50 [3]?
Its GI50 is 0.659 µM.

What about the TGI [3] of the same compound?
The TGI was over 100 µM.

What about the GI50 [4] of the same compound?
The GI50 was 0.414 µM.

And the TGI [4]?
Its TGI is over 100 µM.

And the GI50 [5]?
Its GI50 is 0.596 µM.

And the TGI [5]?
The TGI was over 100 µM.

And the GI50 [6]?
The GI50 was 0.41 µM.

And the TGI [6]?
The TGI was over 100 µM.

And the GI50 [7]?
The GI50 was over 100 µM.

And the TGI [7]?
Its TGI is over 100 µM.

And the GI50 [8]?
Its GI50 is 0.116 µM.

And the GI50 [9]?
Its GI50 is 0.393 µM.

What about the TGI [9] of the same compound?
The TGI was over 100 µM.

What about the GI50 [10] of the same compound?
The GI50 was 0.417 µM.

And the TGI [10]?
Its TGI is over 100 µM.

Which GI50 [1] does the source give for `COc1ccc(-c2ccc(/C=N/n3c(COc4ccc(Cl)cc4Cl)n[nH]c3=S)o2)c([N+](=O)[O-])c1` here?
Its GI50 is 16.3 µM.

And the TGI [1]?
Its TGI is 42 µM.

And the GI50 [2]?
The GI50 was 38.3 µM.

And the TGI [2]?
Its TGI is over 100 µM.

What about the GI50 [3] of the same compound?
The GI50 was 48.9 µM.

And the TGI [3]?
Its TGI is over 100 µM.

And the GI50 [4]?
The GI50 was 28.6 µM.

What about the TGI [4] of the same compound?
Its TGI is over 100 µM.

What about the GI50 [5] of the same compound?
Its GI50 is 14 µM.

What about the TGI [5] of the same compound?
Its TGI is 38.9 µM.

And the GI50 [6]?
Its GI50 is 11.7 µM.

What about the TGI [6] of the same compound?
Its TGI is 43.7 µM.

What about the GI50 [9] of the same compound?
Its GI50 is 30.7 µM.

And the TGI [9]?
The TGI was 97.6 µM.

What about the GI50 [10] of the same compound?
Its GI50 is 34.7 µM.

And the TGI [10]?
Its TGI is over 100 µM.

Which results are given for `O=C(c1ccccc1)C1N=NCC1c1ccc([N+](=O)[O-])cc1` (stereo not given)?
TGI [1]: > 100 µM; TGI [2]: > 100 µM; TGI [3]: > 100 µM; TGI [4]: > 100 µM; TGI [5]: 72.9 µM; TGI [6]: > 100 µM; TGI [7]: > 100 µM; TGI [8]: 69.2 µM; TGI [9]: > 100 µM; TGI [10]: > 100 µM

Which TGI [1] does the source give for `O=C(c1ccc(F)cc1)c1cccc(C(=O)c2ccc(F)cc2)n1` here?
Its TGI is over 100 µM.

What about the TGI [2] of the same compound?
The TGI was over 100 µM.

And the TGI [3]?
Its TGI is over 100 µM.

What about the TGI [4] of the same compound?
The TGI was over 100 µM.

What about the TGI [5] of the same compound?
The TGI was over 100 µM.

What about the TGI [6] of the same compound?
The TGI was over 100 µM.

And the TGI [7]?
Its TGI is 42.9 µM.

And the TGI [8]?
Its TGI is 22.7 µM.

What about the TGI [9] of the same compound?
Its TGI is over 100 µM.

And the TGI [10]?
Its TGI is over 100 µM.

With `COc1cc(Cl)cc(-c2nn(C(=O)NCCN3CCOCC3)cc2-c2ccncc2)c1` as the compound, how does the GI50 [1] read?
Its GI50 is 5.91 µM.

And the TGI [1]?
The TGI was over 100 µM.

What about the GI50 [2] of the same compound?
The GI50 was 8.46 µM.

What about the TGI [2] of the same compound?
The TGI was 57.6 µM.

What about the GI50 [3] of the same compound?
The GI50 was 5.57 µM.

And the TGI [3]?
The TGI was 79.9 µM.

What about the GI50 [4] of the same compound?
The GI50 was 3.79 µM.

What about the TGI [4] of the same compound?
The TGI was over 100 µM.

And the GI50 [5]?
The GI50 was 3.78 µM.

What about the TGI [5] of the same compound?
The TGI was over 100 µM.

And the GI50 [6]?
Its GI50 is 7.38 µM.

What about the TGI [6] of the same compound?
The TGI was over 100 µM.

And the GI50 [7]?
Its GI50 is 10.9 µM.

And the TGI [7]?
Its TGI is 44.3 µM.

What about the GI50 [8] of the same compound?
Its GI50 is 1.73 µM.

And the TGI [8]?
Its TGI is 8.78 µM.

And the GI50 [9]?
Its GI50 is 4.28 µM.

What about the TGI [9] of the same compound?
Its TGI is 32.7 µM.

And the GI50 [10]?
The GI50 was 3.72 µM.

And the TGI [10]?
The TGI was 20.4 µM.
